The values that follow come from patent US20070219154A1, “Methods for preventing and/or treating a cell proliferative disorder” (priority 2005, published 2007).

Holding throughout (assay type): cell-based, human
For test [1], the system named is glioma cancer cell line SF295. The test can be described thus: Soft agar assay, SF295. As for the experimental part: (§1) Cell proliferation was ascertained by soft agar assay. In brief, cells were grown within a matrix of 1.2% soft agar that contained PAR-1 inhibitor at the appropriate concentration. Plates containing cells in the soft agar were incubated at 37° C. for approximately 2 weeks until cell colonies were visible. Cells were then stained by adding 1 mg/ml MTT in PBS and incubating at 37° C. for 1-2 hours. After which the staining solution was removed and plates incubated at 4° C. for 1-2 hours to resolidify agar before scanning.

Test [2] has as its system pancreatic cancer cell line MiaPaCa2. Briefly: Soft agar assay, MiaPaCa2. As for the experimental part:
as §1

For test [3], the system named is prostate cancer cell line PC-3. The test can be described thus: Intracellular Ca2+ release (FLIPR) assay, PC-3. To be noted: thrombin 0.1-100 nM, FIG. 14. The protocol:
(§2) As detailed below, intracellular Ca^2+ release was measured in various tumor cell lines treated with thrombin. Likewise, intracellular Ca^2+ release was measured in a subset of those tumor cell lines treated with thrombin and PAR-1 inhibitor Formula 2. In brief, cells were plated into a 96-well plate at a density of 4×10^4 cells per well and allowed to attach overnight at 37° C. prior to loading with Fluo-4AM. Cells were then incubated at 37° C. for 60 minutes. After washing the cells, thrombin as well as the appropriate concentration of PAR-1 inhibitor Formula 2 was added and cells incubated at 37° C. for 30 minutes prior to taking fluorescence readings.

Test [4] relates to pancreatic cancer cell line Panc1. The test can be described thus: Calcein AM assay, Panc1. The settings on record: 3 days, FIG. 18. The protocol:
(§3) Viability of cells was ascertained using the LIVE/DEAD Viability/Cytotoxicity calcein AM assay [Molecular Probes, technical bulletin MP03224] in the pancreatic cell line MiaPaCa2 and the pancreatic cancer cell line Panc1 following treatment with thrombin, or PAR-1 inhibitor in the presence or absence of thrombin (at a concentration of 10 nM). Calcein AM is a cell-permeant nonflouroescent molecule which is cleaved by esterases found within live cells to create the intensely fluorescent calcein. The polyanionic dye calcein is retained within live cells, producing an intense uniform green fluorescence which can be measured by a fluorescent multiwell plate reader to determine the actual number of live cells in each well. In brief, 1×10^4 cells per well were plated into a 96-well plate and allowed to attach overnight at 37° C. prior to treatment with serum-free media containing 10 nM thrombin as well as the appropriate concentration of PAR-1 inhibitor Formula 2 (5×10^−9; 1×10^−8; 5×10^−8; 1×10^−7; 5×10^−7; 1×10^−6; 5×10^−6; or 1×10^−5 M). Cells were then incubated at 37° C. for 3 days prior to adding Calcein AM reagent and reading fluorescence.

The test system of test [5] is ovarian cancer cell line SKOV-3. Briefly: Intracellular Ca2+ release (FLIPR) assay, SKOV-3. To be noted: thrombin 0.1-100 nM, FIG. 14. The protocol: as §2
The test system of test [6] is glioma cell line U373. The test can be described thus: 14C-thymidine incorporation assay, U373. To be noted: thrombin 0.001-1000 nM, 48 hours, FIG. 16. As for the experimental part: (§4) Cell growth proliferation was ascertained by measuring ^14C-thymidine incorporation in various cell lines treated with thrombin in the presence or absence of a PAR-1 inhibitor. In brief, 5×10^3 cells per well were seeded in a 96-well plate and incubated at 37° C. for 1 day. The cells were starved with serum-free medium for 1 day prior to treatment with serum-free media containing 0.5 μCi/ml ^14C-thymidine as well as PAR-1 inhibitor and/or thrombin (where applicable). The cells were then incubated at 37° C. for 48 hours prior to reading radioactivity on a beta counter (1450 Microbeta Plus, Liquid Scintillation Counter (Wallac Software, Perkin Elmer) using the program for ^14C counting on 96-well Cytostar-T scintillating microplate (Amersham Pharmacia Biotech, Piscataway, N.J.).
(In general: Incorporation of labelled thymidine or its analogues reports DNA synthesis.)

Test [7] concerns pancreatic cell line MiaPaCa2. Briefly: Calcein AM assay, MiaPaCa2. The settings on record: 3 days, FIG. 18. The protocol:
as §3

The next test relates to glioma cell line SNB19. Briefly: Intracellular Ca2+ release (FLIPR) assay, SNB19. The settings on record: thrombin 0.1-100 nM, FIG. 14. The protocol: as §2
The subject of a further test is glioma cell line T98G. Briefly: Intracellular Ca2+ release (FLIPR) assay, T98G. To be noted: thrombin 0.1-100 nM, FIG. 14. The protocol: as §2
The test system of test [8] is glioma cell line U373. Briefly: Intracellular Ca2+ release (FLIPR) assay, U373. To be noted: thrombin 0.1-100 nM, FIG. 14. As for the experimental part: as §2
The subject of a further test is glioma cell line SF295. The test can be described thus: Intracellular Ca2+ release (FLIPR) assay, SF295. The settings on record: thrombin 0.1-100 nM, FIG. 14. The protocol:
as §2

Test [9] deals with pancreatic cancer cell line MiaPaCa2. Briefly: 14C-thymidine incorporation assay, MiaPaCa2. The settings on record: 48 hours. As for the experimental part:
as §4

For test [10] the test system is unchanged. Briefly: Intracellular Ca2+ release (FLIPR) assay, MiaPaCa2. To be noted: thrombin 0.1-100 nM, FIG. 14. The protocol:
as §2

A further test deals with glioma cell line U118MG. Briefly: Intracellular Ca2+ release (FLIPR) assay, U118MG. To be noted: thrombin 0.1-100 nM, FIG. 14. The protocol: as §2

pEC50, pIC50: −log10 of the molar value.

Consider `CCOC(=O)N[C@@H]1CC[C@@H]2[C@@H](C1)C[C@H]1C(=O)O[C@H](C)[C@H]1[C@H]2/C=C/c1ccc(-c2ccccc2C#N)cn1` [Formula 3], for which the “inhibition of cell proliferation (soft agar assay)” value in test [1] (0-30,000 nM, dose-dependent manner) is given as “inhibited”; in [2] (0-10,000 nM, dose-dependent manner), “inhibited”. Moreover, the pIC50 in test [1] (Homo sapiens, SF-295, 336 h, approximately 2 weeks, FIG. 21, read-out: IC50, cell proliferation (soft agar assay)) is 5.21; in [2] (Homo sapiens, MIA PaCa-2, 336 h, approximately 2 weeks, FIG. 20, read-out: IC50, cell proliferation (soft agar assay)) it was 5.28. For the same molecule, the anti-proliferative effects result in [1] (at higher doses) and in test [2] (at higher doses) was “modest” each time.

Consider thrombin, for which the “intracellular Ca2+ release stimulated by thrombin” value (in test [3]; in test [5]; in the test with glioma cell line SNB19; in the test with glioma cell line T98G; in the test on glioma cell line U373 [8]; with glioma cell line SF295) was “stimulates” each time. The “intracellular Ca2+ release stimulated by thrombin” value (in test [10]; in the test on glioma cell line U118MG) was “stimulates” each time. Also, the results for the “thrombin-induced cell proliferation (calcein AM)” value in test [4] and in test [7] were “minimal” and “dose-dependent”, respectively. The “thrombin-induced cell proliferation (14C-thymidine incorporation)” value in the test on glioma cell line U373 [6] is “dose-dependent”; in test [9] (thrombin 10^-4 to 10^2 nM, FIG. 17), “dose-dependent”. Besides, the pEC50 in test [9] (read-out: EC50 of thrombin, cell proliferation (14C-thymidine incorporation)) was 10.85.
